This note sets out measurements from patent US20150238487A1, “NOVEL ERGOLINE DERIVATIVES AND USES THEREOF” (MAP Pharmaceuticals, Inc., priority 2012, published 2015).

SMILES strings stand for the structures.

One experiment addresses T1, Adrenergic α2C (Homo sapiens, UniProt P18825).
T1 construct: expressed in transfected cells; host or cells: CHO-K1 (membrane extracts)
As to the kind of experiment: GTPγ[35S] assay, Adrenergic α2C. In kind it is biochemical. The settings on record: antagonism, CHO-K1 membranes, read-out: Activity (Antagonism: IC50), Adrenergic a2C. As to the method: (§1) Receptor […] activity assays were performed using 8′OH-2-CF3-dihydroergotamine (8′OH-2-CF3-DHE). Table 1 summarizes the cell lines (CHO-K1/HEK293 transfected with relevant human receptor) and the assays performed to detect any agonist or antagonist activity.
(§2) GTPγS studies were conducted to monitor agonist activity for 8′OH-2CF3-dihydroergotamine (8′OH-2CF3-DHE) against the receptors indicated in Table 1 above. Reagents used were the following: Assay buffer (20 mM HEPES, pH 7.4; 100 mM NaCl; 10 μg/mL saponin; 30 mM MgCl2); Membranes (recombinant human receptor membrane extracts were thawed on ice and diluted in assay buffer to give 1000 μg/mL ([…]) and kept on ice); GDP (diluted in assay buffer to give 30 μM solution (3 μM final concentration); beads (PVT-WGA (Amersham, RPNQ001), diluted in assay buffer at 25 mg/mL (0.25 mg/10 μL)); GTPγ^35S (Perkin Elmer, NEG030X), diluted in assay buffer to give 0.1 nM (final concentration); and ligand (agonist/antagonist diluted in assay buffer).
(§3) Membranes were mixed with GDP (1:1) and incubated for at least 15 minutes on ice. In parallel GTPγ^35S was mixed with the beads (1:1) just before starting the reaction. […] The plates were then centrifuged for 10 minutes at 2000 rpm and incubated at room temperature for 1 hour and counted for 1 min/well with a Perkin Elmer TopCount reader.

The subject of another experiment is Opioid (OP1/OP2/OP3). As to the kind of experiment: GTPγ[35S] assay, Opioid receptors. Type of experiment: biochemical, human. To be noted: CHO-K1 membranes. As for the experimental part: as §1, §2, §3
For the next experiment, the target named is T2, Adrenergic α1A (Homo sapiens, UniProt P35348).
T2 construct: expressed in transfected cells; host or cells: CHO-K1 mAeq
Description: Aequorin assay, Adrenergic α1A. Type of experiment: cell-based. To be noted: antagonism, CHO-K1 mAeq, read-out: Activity (Antagonism: IC50), Adrenergic a1A. As to the method:
as §1
(§4) Aequorin assays were conducted to monitor activity for 8′OH-2CF3-dihydroergotamine (8′OH-2CF3-DHE) against the receptors indicated in Table 1 above (except for mGlu3 and mGlu5). CHO-K1 cells coexpressing mitochondrial apoaequorin and the recombinant human receptor of interest were grown to mid-log phase in culture media without antibiotics and then detached with PBS-EDTA, centrifuged and resuspended in assay buffer (DMEM/HAM's F12 with HEPES, without phenol red+0.1% BSA, protease free) at a concentration of 1×10^6 cell/mL. […]
(§5) 50 μL of the cell suspension was mixed with 50 μL of test or reference agonist in a 96-well plate. The resulting emission of light was recorded using Hamamatsu Functional Drug Screening System 6000 (FDSS 6000) luminometer. […]
(§6) To standardize the emission of recorded light (and determine of the “100% signal”) across plates and across different experiments, some wells contained 100 μM digitonin or a saturating concentration of ATP (20 μM).

In experiment [1] the test system is NMDA (NR1/NR2A/NR2B/NR2C/NR2D). Description: NMDA receptor channel Fluo-8 calcium FLIPR assay. In kind it is cell-based, human. To be noted: HEK293, Fluo-8 calcium FLIPR, agonist and antagonist assessment. As for the experimental part:
Studies for NMDA receptors, NR1, NR2A, NR2B, NR2C, NR2D receptor, were conducted to monitor receptor activity for 8′OH-2CF3-dihydroergotamine (8′OH-2CF3-DHE) using the Fluo-8 calcium kit and a Fluorescence Imaging Plate Reader (FLIPR^TETRA™) instrument. The following channels were evaluated: Cloned NMDA receptor (NR1/NR2A) channel (encoded by the GRIN1 and GRIN2A genes, coexpressed in HEK293 cells; Cloned NMDA receptor (NR1/NR2B) channel (encoded by the GRIN1 and GRIN2B genes, coexpressed in HEK293 cells; Cloned NMDA receptor (NR1/NR2C) channel (encoded by the GRIN1 and GRIN2C genes, coexpressed in HEK293 cells; and Cloned NMDA receptor (NR1/NR2D) channel (encoded by the GRIN1 and GRIN2D genes, transiently coexpressed in HEK293 cells.
For the agonist assessment, the effect of 8′OH-2CF3-DHE was evaluated in the absence of the positive control agonist. The signal, elicited in the presence of the agonist (100 μM Glutamic acid+20 μM Glycine), was set to 100% activation and the signal in the presence of the vehicle control (Mg^2+-free HB-PS) was set to 0% activation.
For the antagonist assessment, NR1/NR2A and NR1/NR2B was activated with the positive control agonist (100 μM Glutamic acid+20 μM Glycine). The ability of 8′OH-2CF3-DHE to inhibit the signal was examined after agonist stimulation and compared to the positive control antagonist (MK-801). […]

Another experiment addresses T3, Dopamine D3 (Homo sapiens, UniProt P35462).
T3 construct: expressed in transfected cells; host or cells: CHO-K1 (membrane extracts)
As to the kind of experiment: GTPγ[35S] assay, Dopamine D3. In kind it is biochemical. The settings on record: agonism, CHO-K1 membranes. As for the experimental part: as §1, §2, §3

For another experiment, the target named is T4, Dopamine D2L (Homo sapiens, UniProt P14416).
T4 construct: expressed in transfected cells; host or cells: CHO-K1 (membrane extracts)
As to the kind of experiment: GTPγ[35S] assay, Dopamine D2L. Type of experiment: biochemical. To be noted: agonism, CHO-K1 membranes. As for the experimental part: as §1, §2, §3

In the next experiment the target is T5, Adrenergic α1B (Homo sapiens, UniProt P35368).
T5 construct: expressed in transfected cells; host or cells: CHO-K1 mAeq
As to the kind of experiment: Aequorin assay, Adrenergic α1B. The settings on record: antagonism, CHO-K1 mAeq, read-out: Activity (Antagonism: IC50), Adrenergic a1B. Type of experiment: cell-based. As to the method:
as §1, §4, §5, §6

A word on the IC50: it is the point on the concentration scale where inhibition reaches its midpoint. The EC50 is the concentration that produces a half-maximal response. The low end stands for a more potent agent, the high end for a less potent agent.

T5 sequence (P35368 whole entry): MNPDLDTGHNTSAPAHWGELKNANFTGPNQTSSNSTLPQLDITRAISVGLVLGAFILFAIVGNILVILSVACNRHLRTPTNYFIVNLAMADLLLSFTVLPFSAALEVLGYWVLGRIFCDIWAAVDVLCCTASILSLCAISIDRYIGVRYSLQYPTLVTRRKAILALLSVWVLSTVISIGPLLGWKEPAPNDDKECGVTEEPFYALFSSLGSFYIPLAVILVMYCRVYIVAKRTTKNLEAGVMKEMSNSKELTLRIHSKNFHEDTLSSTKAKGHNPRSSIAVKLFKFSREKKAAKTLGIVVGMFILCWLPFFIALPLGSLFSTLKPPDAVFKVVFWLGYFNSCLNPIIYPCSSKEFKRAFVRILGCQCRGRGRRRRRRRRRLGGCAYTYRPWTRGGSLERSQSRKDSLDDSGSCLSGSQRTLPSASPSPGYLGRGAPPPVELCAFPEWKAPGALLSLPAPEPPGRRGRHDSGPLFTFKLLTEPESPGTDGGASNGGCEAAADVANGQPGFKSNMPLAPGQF
T1 sequence (P18825 whole entry): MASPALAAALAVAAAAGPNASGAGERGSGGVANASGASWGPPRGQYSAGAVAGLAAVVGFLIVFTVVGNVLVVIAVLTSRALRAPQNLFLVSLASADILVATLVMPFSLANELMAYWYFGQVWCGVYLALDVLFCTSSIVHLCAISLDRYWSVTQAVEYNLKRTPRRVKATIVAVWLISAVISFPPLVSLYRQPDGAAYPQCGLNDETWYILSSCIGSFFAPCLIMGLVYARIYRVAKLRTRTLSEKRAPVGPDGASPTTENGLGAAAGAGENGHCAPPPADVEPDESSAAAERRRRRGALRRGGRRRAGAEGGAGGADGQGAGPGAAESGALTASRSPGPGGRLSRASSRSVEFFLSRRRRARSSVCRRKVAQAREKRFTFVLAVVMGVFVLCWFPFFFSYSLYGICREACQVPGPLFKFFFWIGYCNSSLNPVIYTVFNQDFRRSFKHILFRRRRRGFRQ
T2 sequence (P35348 whole entry): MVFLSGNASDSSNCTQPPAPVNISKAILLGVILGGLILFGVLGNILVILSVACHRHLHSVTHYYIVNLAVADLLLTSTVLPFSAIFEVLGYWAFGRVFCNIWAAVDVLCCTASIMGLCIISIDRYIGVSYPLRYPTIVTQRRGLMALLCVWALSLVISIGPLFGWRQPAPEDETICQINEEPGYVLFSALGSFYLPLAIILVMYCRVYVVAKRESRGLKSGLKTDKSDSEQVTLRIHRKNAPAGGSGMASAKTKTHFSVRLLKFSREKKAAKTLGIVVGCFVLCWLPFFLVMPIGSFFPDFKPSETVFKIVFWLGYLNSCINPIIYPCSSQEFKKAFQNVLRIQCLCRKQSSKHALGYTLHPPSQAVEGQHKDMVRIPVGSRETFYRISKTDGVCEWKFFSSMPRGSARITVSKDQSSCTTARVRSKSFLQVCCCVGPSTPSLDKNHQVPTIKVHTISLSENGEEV
T4 sequence (P14416 whole entry): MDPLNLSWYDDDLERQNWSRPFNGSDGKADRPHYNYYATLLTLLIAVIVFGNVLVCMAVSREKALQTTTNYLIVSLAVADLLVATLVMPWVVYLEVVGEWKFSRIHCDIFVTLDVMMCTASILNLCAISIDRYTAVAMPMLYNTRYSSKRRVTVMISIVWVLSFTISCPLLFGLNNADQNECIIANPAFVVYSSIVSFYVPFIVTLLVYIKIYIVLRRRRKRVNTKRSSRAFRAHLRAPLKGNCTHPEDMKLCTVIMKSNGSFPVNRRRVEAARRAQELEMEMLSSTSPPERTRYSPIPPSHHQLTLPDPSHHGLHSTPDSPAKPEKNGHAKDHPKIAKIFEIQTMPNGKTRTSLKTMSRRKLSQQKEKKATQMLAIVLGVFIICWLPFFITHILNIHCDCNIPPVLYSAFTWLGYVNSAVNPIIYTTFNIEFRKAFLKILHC
T3 sequence (P35462 whole entry): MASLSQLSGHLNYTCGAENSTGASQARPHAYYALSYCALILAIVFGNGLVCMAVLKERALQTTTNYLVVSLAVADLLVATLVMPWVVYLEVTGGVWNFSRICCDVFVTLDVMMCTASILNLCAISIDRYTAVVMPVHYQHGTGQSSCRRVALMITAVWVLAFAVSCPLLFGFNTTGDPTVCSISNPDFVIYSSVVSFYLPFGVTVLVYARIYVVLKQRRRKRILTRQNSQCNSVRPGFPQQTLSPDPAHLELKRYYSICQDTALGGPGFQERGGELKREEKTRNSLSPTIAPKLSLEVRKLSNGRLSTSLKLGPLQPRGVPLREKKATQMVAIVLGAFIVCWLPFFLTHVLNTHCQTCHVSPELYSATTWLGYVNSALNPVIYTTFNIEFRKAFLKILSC

With `CN1C[C@H](C(=O)N[C@]2(C)O[C@@]3(O)[C@@H]4CC[C@@H](O)N4C(=O)[C@H](Cc4ccccc4)N3C2=O)C[C@@H]2c3cccc4[nH]c(C(F)(F)F)c(c34)C[C@H]21` [8′OH-2-CF3-DHE, 8′-Hydroxy-2-CF3-dihydroergotamine], the IC50 on Adrenergic α2C is more than 10 µM; on Adrenergic α1A it was 39.5 nM; on Adrenergic α1B, 10.9 nM. Further, the “Activity (Agonism: EC50; Antagonism: IC50), Opioid (OP1/OP2/OP3)” value in the experiment on Opioid (OP1/OP2/OP3) is recorded as “Inactive”. Further, the “Activity (Agonism: EC50; Antagonism: IC50), NMDA (NR1/NR2A/NR2B/NR2C/NR2D)” value in experiment [1] is given as “Inactive”. The figures for the EC50 on Dopamine D3 and at Dopamine D2L were 32.3 nM and 17.3 nM, respectively.
